# Structures can show the parent of a compound that is named as a salt. Where two headings read alike, the source gives them in different places.
# Assays:
# Format in all cases: physicochemical
# [1] = Solubility of MN-029 di-hydrochloride in aqueous citric acid; details: aqueous citric acid (4.75 mg/ml), 25° C., 12 hours shaking
# Excerpt: Without being held to any particular theory, the present inventor believes that the enhanced solubility of the di-hydrochloride salt is enhanced by the lower pH of the resulting solution. That is, the reduced pH of a solution of the di-hydrochloride of MN-029 improves its aqueous solubility. To test this theory, the present inventor measured the solubility of MN-029 di-hydrochloride in aqueous citric acid and in citrate buffers at different pH values. Two samples of the di-hydrochloride salt in aqueous citric acid were prepared by adding 10 ml of an aqueous citric acid solution to 36.9 mg and 74.5 mg of MN-029 di-hydrochloride salt in a vial.
# After equilibration with shaking at 25° C. for 12 hours, visual inspection of the solution in each vial indicated a clear colorless solution with no solid residue. Accordingly, the solubility MN-029 di-hydrochloride in aqueous citric acid (4.75 mg/ml) was calculated to exceed […] of the di-hydrochloride per milliliter of aqueous citric acid.
# [2] = Osmolality and pH of solutions in water and in 15% HPBCD
# Description: Solutions were prepared by weighing MN-029 di-hydrochloride salt into 10-mL volumetric flasks. The drug was dissolved in water with vortexing, and samples were diluted to volume with water. Solutions of 1, 2, 4, 6 and 8 mg/mL were made according to this procedure. The samples were allowed to sit at room temperature overnight prior to pH and osmolality measurements.
# All samples were clear except for the 8 mg/mL solution, which was initially clear but precipitated upon sitting overnight. As shown in Table 10 and in FIGS. 9 and 10, the pH declined in an almost linear fashion with increasing drug concentration while osmolality increased linearly with concentration up to 6 mg/mL.
# The pH and osmolality were also measured for solutions of MN-029 di-hydrochloride salt in a 15% solution of hydroxypropyl-β-cyclodextrin (HPBCD). Solutions of 5, 10, 15, 20, and 30 mg/mL were prepared for analysis. The solutions were made by weighing out an appropriate amount of the compound into HPLC vials to which 1.00 mL of 15% HPBCD was added with brief vortexing. Although solutions were clear upon mixing, they were shaken overnight on an orbital shaker to assure equilibration. All solutions remained clear after overnight shaking. HPBCD at a concentration of 15% was sufficient to solubilize MN-029 di-hydrochloride up to a concentration of 30 mg/mL. As shown in Table 11 and in FIGS. 11 and 12, the pH decreased almost linearly with increasing MN-029 di-hydrochloride concentration, while the osmolality increased linearly. The dotted lines on the pH graphs (FIGS. 9 and 11) connect the data points for clarity while the dotted lines on the osmolality graphs (FIGS. 10 and 12) are linear regressions of the data which are extrapolated back to zero drug concentration.
# [3] = Aqueous solubility, 24 hours equilibration in water at 25° C., HPLC, pH and XRPD of residue; details: water
# Description: Briefly, quantitative high performance liquid chromatography (HPLC) was used to determine the aqueous solubility. X-ray powder diffraction spectrometry was also used to characterize the thermodynamic solubility of the mono-hydrochloride and di-hydrochloride salts of MN-029. After a 24 hours equilibration of each salt form in water at 25° C., the residual solid material was separated from the aqueous solution and the pH of the aqueous sample was measured. The XRPD spectrum of the solid residue obtained from the MN-029 di-hydrochloride vial indicated the solid material to be the mono-hydrochloride salt of MN-029. […] Table 4 illustrates the data from aqueous solubility studies of the mono-hydrochloride and di-hydrochloride salts of MN-029.
# The suspension was equilibrated at 25° C. for 24 hours then pH was measured. The suspension was filtered and the filtrate was diluted by a factor of 101. Quantization by HPLC with a reference to a standard solution. Different volumes of the standard, diluted, and undiluted solution were injected and solubility was calculated by integration of the peak found at the same time as the principle peak in the standard solution.
# [4] = Solubility as a function of pH in buffers without and with 15% HPBCD; details: thermodynamic from solid
# Description: Buffers were prepared to cover a pH range of 2 to 7. Approximately 5 to 10 milligrams of drug was weighed into an HPLC vial to which 1.00 mL of the appropriate buffer was added. The solutions were vortexed briefly and were then shaken for five days on an orbital shaker. The prolonged shaking was carried out because slow equilibration had been observed during the initial formulation studies with different salt forms of MN-029.
# Buffers with 15% HPBCD were prepared from the previous buffers. One and a half grams of HPBCD was weighed into each of several 10 mL volumetric flasks. HPBCD was dissolved in and diluted to volume with the appropriate buffer. 15 to 20 milligrams of MN-029 di-hydrochloride was weighed out into an tared HPLC vial. To the di-hydrochloride salt was added 1.00 mL of each buffer and the solution was vortexed briefly to dissolve the salt. The solutions were placed on an orbital shaker for five days. Solubility results are shown in Table 10, and the pH solubility profile for the drug in the absence of HPBCD is shown in FIG. 8.
# [5] = Log P, Log Pion, Log D by potentiometric titration (Sirius GlpKa, octanol:water); details: octanol:ionic-strength adjusted water
# Excerpt: Most drugs have an ideal log P value and any deviation from this idealized value results in reduced absorption, slow transport of drug to the site of action and consequently, a decrease in biological activity. Table 8, illustrates the predicted and measured values for partition coefficients of MN-029 di-hydrochloride. The data was collected by potentiometric titration using a Sirius GlpKa instrument using three ratios of octanol:ionic-strength adjusted water to generate Log P, Log Pion and Log D values and the raw data was analyzed using Refinement Pro Software V.1.0. The predicted value of Log P was obtained using ACD V. software and Syracuse KOWWIN V.1.67 softwares.
# [6] = In Deionized Water, 8.00* mg/mL (precipitated upon sitting overnight)
# [7] = 25° C., equilibration for 24 hours
smiles,measurement,setting,value
"COC(=O)Nc1nc2ccc(Sc3ccc(NC(=O)[C@H](C)N)cc3)cc2[nH]1 [MN-029 di-hydrochloride, carbamic acid N-[6-[[4-[[(2S)-2-amino-1-oxopropyl]amino]phenyl]thio]-1H-benzimidazol-2-yl]-methyl ester di-hydrochloride]",solubility in aqueous citric acid,[1],exceed 7.54 mg of the di-hydrochloride per milliliter of aqueous citric acid
same,solubility,"[2]; 15% HPBCD solution, aqueous with cosolvent or surfactant or cyclodextrin, thermodynamic from solid, read-out: concentration solubilized by 15% HPBCD (solutions clear after overnight shaking)",≥ 30 mg/mL
same,Osmolality,"[2]; In 15% HPBCD, 5.35 mg/mL",162 mOsm/kg
same,pH,"[2]; In 15% HPBCD, 5.35 mg/mL",2.40
same,Osmolality,"[2]; In 15% HPBCD, 10.1 mg/mL",182 mOsm/kg
same,pH,"[2]; In 15% HPBCD, 10.1 mg/mL",2.21
same,Osmolality,"[2]; In 15% HPBCD, 15.3 mg/mL",203 mOsm/kg
same,pH,"[2]; In 15% HPBCD, 15.3 mg/mL",2.10
same,Osmolality,"[2]; In 15% HPBCD, 20.1 mg/mL",221 mOsm/kg
same,pH,"[2]; In 15% HPBCD, 20.1 mg/mL",2.04
same,Osmolality,"[2]; In 15% HPBCD, 30.1 mg/mL",259 mOsm/kg
same,pH,"[2]; In 15% HPBCD, 30.1 mg/mL",1.89
same,Osmolality,"[2]; In Deionized Water, 1.05 mg/mL",6 mOsm/kg
same,pH,"[2]; In Deionized Water, 1.05 mg/mL",3.25
same,Osmolality,"[2]; In Deionized Water, 2.04 mg/mL",11 mOsm/kg
same,pH,"[2]; In Deionized Water, 2.04 mg/mL",3.03
same,Osmolality,"[2]; In Deionized Water, 4.03 mg/mL",22 mOsm/kg
same,pH,"[2]; In Deionized Water, 4.03 mg/mL",2.82
same,Osmolality,"[2]; In Deionized Water, 5.96 mg/mL",32 mOsm/kg
same,pH,"[2]; In Deionized Water, 5.96 mg/mL",2.63
same,Osmolality,[2]; [6],36* mOsm/kg
same,pH,[2]; [6],1.90*
same,fold more soluble in water than the mono-hydrochloride salt,[3],at least 3 fold
same,Concentration of filtrate,[3]; [7],2.1 mg/ml of free base
same,pH of saturated solution,[3]; [7],1.03
same,solubility at 5 days,"[4]; aqueous buffer with 15% HPBCD, aqueous with cosolvent or surfactant or cyclodextrin, pH 2 to pH 6.9, in the presence of 15% HPBCD, read-out: solubility across the tested pH range",> 20 mg/mL
same,solubility at 5 days,"[4]; aqueous buffer, pH 2, aqueous buffer, Without HPBCD, buffer pH 2.0, final pH 2.10, five days shaking, read-out: MN-029 Solubility",~6 mg/mL
same,Measured LogPion(cation),[5],0.93
same,Measured LogD7.4,[5]; pH 7.4,2.10
same,logD,"[5]; pH 7.4, read-out: Measured LogD7.4",2.1
same,logP,[5]; read-out: Measured LogP,2.64

# Source: US8633324B2, “Denibulin di-hydrochloride” (Medicinova, Inc., priority 2011, dated 2014)
